The values below come from US9637469B2, “Pyridine derivative” (Teijin Pharma Limited, priority 2012, dated 2017).

The structures appear in SMILES notation.

One test deals with T1, human URAT1 (Homo sapiens, UniProt Q96S37).
T1 construct: Full-length cDNA of human URAT1 (hURAT1)
T1 sequence (Q96S37 1-553): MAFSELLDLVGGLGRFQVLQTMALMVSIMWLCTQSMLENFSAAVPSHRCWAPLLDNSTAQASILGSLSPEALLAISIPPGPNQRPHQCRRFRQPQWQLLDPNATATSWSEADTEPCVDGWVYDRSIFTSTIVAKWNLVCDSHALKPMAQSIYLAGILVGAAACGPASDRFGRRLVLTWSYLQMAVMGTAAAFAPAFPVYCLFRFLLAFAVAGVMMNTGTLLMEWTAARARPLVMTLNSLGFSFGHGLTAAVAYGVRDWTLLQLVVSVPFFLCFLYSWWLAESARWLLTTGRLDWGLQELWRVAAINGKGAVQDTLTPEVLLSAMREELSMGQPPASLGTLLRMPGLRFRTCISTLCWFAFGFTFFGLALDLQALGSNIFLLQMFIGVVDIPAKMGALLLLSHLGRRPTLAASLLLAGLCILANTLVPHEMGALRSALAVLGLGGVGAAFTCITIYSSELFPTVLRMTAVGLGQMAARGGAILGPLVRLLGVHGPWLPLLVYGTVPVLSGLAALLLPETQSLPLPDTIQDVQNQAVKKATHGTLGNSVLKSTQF
In words: Test for inhibition of uric acid transport using human URAT1-expressing cells.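 Note: three stars up to 0.2 µM two stars 0.2-2 µM one star 2-20 µM.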 The test is classed as cell-based. As to conditions: HEK 293 cells expressing human URAT1; 14C-labeled uric acid 25 μM; uptake 37° C. for 5 min. The gist of the method:
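IC50 values reflect inhibition of ¹⁴C-uric acid uptake (25 μM final, 5 min, 37 °C) by compound. Cells were HEK293 stably expressing full-length human URAT1, preincubated in Na-gluconate-substituted HBSS. Radioactivity in lysates was expressed relative to DMSO control as 100%.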
`O=C(O)c1c(C2CC2)nc(-c2cccnc2)n1Cc1cc(F)cc2ccsc12` [Compound A86, 4-cyclopropyl-1-((5-fluorobenzo[b]thiophen-7-yl)methyl)-2-(pyridin-3-yl)-1H-imidazole-5-carboxylic acid]: the “Inhibitory Activity (IC50 of uric acid transport inhibition)” value (from here on “Inhibitory Activity”) is “* * *”.

As for `Cc1nc(-c2cccnc2)n(Cc2csc3cccc(C(F)(F)F)c23)c1C(=O)O` [Compound A6, 4-methyl-2-(pyridin-3-yl)-1-((4-(trifluoromethyl)benzo[b]thiophen-3-yl)-methyl)-1H-imidazole-5-carboxylic acid], the “Inhibitory Activity” value is reported as “* *”.

In the case of `Cc1ccc(Cn2c(C(=O)O)ccc2-c2cccnc2)c2ccccc12` [Compound B2, 1-((4-methylnaphthalen-1-yl)methyl)-2-(pyridin-3-yl)-1H-pyrrole-5-carboxylic acid], the “Inhibitory Activity” value was “* * *”.

On to `Cc1cccc2scc(Cn3c(C(=O)O)ccc3-c3cccnc3)c12` [Compound B7, 1-((4-methylbenzo[b]thiophen-3-yl)methyl)-2-(pyridin-3-yl)-1H-pyrrole-5-carboxylic acid], for which the “Inhibitory Activity” value is “* * *”.

For `Cc1cncc(Oc2nc(C)c(C(=O)O)n2Cc2cc(Cl)ccc2Cl)c1` [Compound A255, 1-(2,5-dichlorobenzyl)-4-methyl-2-((5-methylpyridin-3-yl)oxy)-1H-imidazole-5-carboxylic acid], the “Inhibitory Activity” value is given as “* * *”.

Consider `O=C(NS(=O)(=O)C1CC1)c1ccc(-c2cccnc2)n1Cc1cccc2ccccc12` [Compound B25, N-(cyclopropylsulfonyl)-1-(naphthalen-1-ylmethyl)-2-(pyridin-3-yl)-1H-pyrrole-5-carboxamide], for which the “Inhibitory Activity” value is “* * *”.

For the compound `Cc1nc(Oc2cccnc2Br)n(Cc2cc(Cl)ccc2Cl)c1C(=O)O` [Compound A254, 2-((2-bromopyridin-3-yl)oxy)-1-(2,5-dichlorobenzyl)-4-methyl-1H-imidazole-5-carboxylic acid], the “Inhibitory Activity” value is listed as “* * *”.

In the case of `CS(=O)(=O)NC(=O)c1c(C2CC2)nc(-c2cccnc2)n1Cc1cccc2ccsc12` [Compound A117, 1-(benzo[b]thiophen-7-ylmethyl)-4-cyclopropyl-N-(methylsulfonyl)-2-(pyridin-3-yl)-1H-imidazole-5-carboxamide], the “Inhibitory Activity” value is recorded as “* *”.

As for `CC(C)c1nc(-c2cccnc2)n(Cc2csc3cccc(Cl)c23)c1C(=O)O` [Compound A37, 1-((4-chlorobenzo[b]thiophen-3-yl)methyl)-4-isopropyl-2-(pyridin-3-yl)-1H-imidazole-5-carboxylic acid], the “Inhibitory Activity” value is listed as “* * *”.

`Cc1nc(Oc2cccnc2)n(Cc2cc(Cl)ccc2Cl)c1C(=O)O` [Compound A248, 1-(2,5-dichlorobenzyl)-4-methyl-2-(pyridin-3-yloxy)-1H-imidazole-5-carboxylic acid]: the “Inhibitory Activity” value is recorded as “* * *”.

For `CC(C)c1nc(-c2cncc(Cl)c2)n(Cc2cccc3ccccc23)c1C(=O)O` [Compound A144, 2-(5-chloropyridin-3-yl)-4-isopropyl-1-(naphthalen-1-ylmethyl)-1H-imidazole-5-carboxylic acid], the “Inhibitory Activity” value is given as “* * *”.

The test is the same for the next values; noted with them: HEK 293 cells expressing human URAT1; 14C-labeled uric acid 25 μM; uptake 37° C. for 5 min; read-out: Inhibitory Activity (IC50 of uric acid transport inhibition).
Take `CC[S+]([O-])c1nc(-c2cccnc2)n(Cc2cc(Cl)ccc2Cl)c1C(=O)O` (stereo not shown) [Compound A107]: the 50% inhibitory concentration (IC50) (as a rule, the midpoint of a concentration-inhibition curve) lay in the range of 2 to 20 µM.

With `CC(C)(Sc1ncc(-c2cccnc2)n1Cc1cc(Cl)ccc1Cl)C(=O)O` [Compound A264], the IC50 fell in the range of 2 to 20 µM.

On to `Cc1ccc2ccccc2c1Cn1c(-c2cccnc2)nc(C)c1C(=O)O` [Compound A4], for which the IC50 was 2 to 20 µM.

On to `COc1ccc(-c2nc(C)c(C(=O)O)n2Cc2cccc3ccccc23)c(OC)n1` [Compound A47], for which the IC50 was in the range of 2 to 20 µM.

As for `Cc1nc(-c2cccnc2)n(Cc2ccccc2OC(F)(F)F)c1C(=O)O` [Compound A62], the IC50 is 2 to 20 µM.
